Results on four compounds are retold here after patent US12227491B2, “EGFR inhibitors” (INVENTISBIO CO., LTD., priority 2018, dated 2025).

Read-outs that look alike come from different tables or passages of the source.

Data set [1] deals with wild-type EGFR (WT-EGFR) (Homo sapiens, UniProt P00533). The following applies: major metabolite of AZD9291; cited from earlier work.
The test system of data set [2] is NSCLC patients. The conditions noted are these: cited from earlier work.
Data set [3] in a line: Hygroscopicity of crystalline Form I on storage at 25° C., 80% relative humidity. Type of data set: physicochemical.
Data set [4] can be described thus: Solid-state stability of Form I under thermal treatment and mechanical grinding (XRPD). It is filed as physicochemical. The protocol: POWDER X-RAY DIFFRACTION (XRPD): The solid samples from screening were examined using X-ray diffractometer (Bruker D8 advance). The system is equipped with LynxEye detector. The samples were scanned from 3 to 40° 2θ, at a step size 0.02° 2θ. The tube voltage and current were 40 KV and 40 mA, respectively. The sample was transferred from sample container onto zero background XRD-holder and gently ground.
DSC ANALYSIS: DSC analysis was conducted on a TA Instruments Q200. The calibration standard was indium. A sample in weight was placed into a TA DSC pan, and weight accurately recorded. Crimped pans were used for analysis and the samples were heated under nitrogen (50 mi/min) at a rate of 10° C./min, up to a final temperature.

wild-type EGFR (WT-EGFR), sequence (P00533 25-1210): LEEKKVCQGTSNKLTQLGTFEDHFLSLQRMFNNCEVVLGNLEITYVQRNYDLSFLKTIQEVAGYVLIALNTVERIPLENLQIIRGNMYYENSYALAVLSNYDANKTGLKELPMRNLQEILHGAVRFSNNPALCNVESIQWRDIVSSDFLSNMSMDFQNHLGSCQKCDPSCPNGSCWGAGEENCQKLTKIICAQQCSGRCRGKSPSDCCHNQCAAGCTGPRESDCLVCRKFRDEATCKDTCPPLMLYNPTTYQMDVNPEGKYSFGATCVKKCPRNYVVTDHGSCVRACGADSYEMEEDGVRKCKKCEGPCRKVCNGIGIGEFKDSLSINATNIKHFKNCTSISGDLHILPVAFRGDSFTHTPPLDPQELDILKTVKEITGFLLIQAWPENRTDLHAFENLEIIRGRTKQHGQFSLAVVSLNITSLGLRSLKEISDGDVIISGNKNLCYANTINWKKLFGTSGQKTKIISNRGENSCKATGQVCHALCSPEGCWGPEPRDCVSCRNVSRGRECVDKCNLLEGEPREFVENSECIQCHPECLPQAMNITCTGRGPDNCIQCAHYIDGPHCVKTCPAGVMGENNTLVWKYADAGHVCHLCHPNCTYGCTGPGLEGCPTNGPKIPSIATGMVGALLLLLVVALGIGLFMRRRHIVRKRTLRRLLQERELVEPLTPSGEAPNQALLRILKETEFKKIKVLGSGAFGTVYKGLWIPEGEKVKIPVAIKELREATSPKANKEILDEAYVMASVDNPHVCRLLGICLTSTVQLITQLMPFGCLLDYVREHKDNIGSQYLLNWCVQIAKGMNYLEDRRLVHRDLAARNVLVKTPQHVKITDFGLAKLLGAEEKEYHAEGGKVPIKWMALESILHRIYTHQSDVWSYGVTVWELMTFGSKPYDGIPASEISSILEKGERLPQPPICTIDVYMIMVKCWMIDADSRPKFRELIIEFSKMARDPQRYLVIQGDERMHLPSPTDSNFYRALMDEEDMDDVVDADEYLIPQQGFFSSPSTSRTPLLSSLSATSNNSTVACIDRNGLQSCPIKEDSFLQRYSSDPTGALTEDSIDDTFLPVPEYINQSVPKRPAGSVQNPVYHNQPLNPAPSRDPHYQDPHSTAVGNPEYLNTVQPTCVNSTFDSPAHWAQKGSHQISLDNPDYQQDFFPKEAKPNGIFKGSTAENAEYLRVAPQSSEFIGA

Turning to `C=CC(=O)Nc1cc(Nc2nccc(-c3c[nH]c4ccccc34)n2)c(OC)cc1N(C)CCN(C)C` [AZ5104], the “inhibitory effect on wild-type EGFR” value in data set [1] is on record as “strong inhibitory effect”.

Turning to `C#Cc1cccc(Nc2ncnc3cc(OCCOC)c(OCCOC)cc23)c1` [erlotinib], the results for the “share of patients in whom the drug has effect” value in data set [2] (Asian NSCLC patients) and in data set [2] (Caucasian patients with NSCLC) were “about 35%” and “about 10%”, respectively.

As for `C=CC(=O)Nc1cc(Nc2nccc(-c3cn(CC(F)(F)F)c4ccccc34)n2)c(OC)cc1N(C)CCN(C)C` [Compound 5, N-(2-((2-(dimethylamino)ethyl)(methyl)amino)-4-methoxy-5-((4-(1-(2,2,2-trifluoroethyl)-1H-indol-3-yl)pyrimidin-2-yl)amino)phenyl)acrylamide monomesylate], the “increase in weight upon storing” value in data set [3] (25° C., relative humidity of 80%) is recorded as “only negligible increase in weight”. In addition, the hygroscopicity result in data set [3] (crystalline Form I) is on record as “non-hygroscopic”. The “crystallinity after mechanical grinding” value in data set [4] (Form I grinded mechanically) is “some loss of crystallinity”. Also, the “solid form after thermal treatment” value in data set [4] (crystals heated in DSC cells to 220° C., then immediately placed into ice (quench), XRPD) is on record as “converted into an amorphous form”.

Consider `COc1cc2ncnc(Nc3ccc(F)c(Cl)c3)c2cc1OCCCN1CCOCC1` [gefitinib], for which the “share of patients in whom the drug has effect” value is “about 35%” in data set [2] (Asian NSCLC patients) and “about 10%” in data set [2] (Caucasian patients with NSCLC).
